Data from ChEMBL document CHEMBL1201862, “PubChem BioAssay data set” (2004).
The source made the active and inactive calls.

Key:
BJ [1] = assay: BJ-TERT fibroblast viability loss – cell-based, RAS-independent, luminescence, dose response (AID 1933); type: functional; conditions: Homo sapiens
BJ [2] = assay: cells; type: functional, cell-based; conditions: Homo sapiens
[3] = DRD fibroblast viability loss – cell-based, non-viral oncogenic, luminescence, dose response (AID 1934); type: functional; conditions: Homo sapiens
[4] = molecular target: T1, Replicative DNA helicase DnaB (Mycobacterium tuberculosis, UniProt P9WMR3); assay: DnaB intein splicing inhibitors, dose response, biochemical, cell-free fluorescence (AID 449749); type: functional
T1 sequence (P9WMR3 whole entry): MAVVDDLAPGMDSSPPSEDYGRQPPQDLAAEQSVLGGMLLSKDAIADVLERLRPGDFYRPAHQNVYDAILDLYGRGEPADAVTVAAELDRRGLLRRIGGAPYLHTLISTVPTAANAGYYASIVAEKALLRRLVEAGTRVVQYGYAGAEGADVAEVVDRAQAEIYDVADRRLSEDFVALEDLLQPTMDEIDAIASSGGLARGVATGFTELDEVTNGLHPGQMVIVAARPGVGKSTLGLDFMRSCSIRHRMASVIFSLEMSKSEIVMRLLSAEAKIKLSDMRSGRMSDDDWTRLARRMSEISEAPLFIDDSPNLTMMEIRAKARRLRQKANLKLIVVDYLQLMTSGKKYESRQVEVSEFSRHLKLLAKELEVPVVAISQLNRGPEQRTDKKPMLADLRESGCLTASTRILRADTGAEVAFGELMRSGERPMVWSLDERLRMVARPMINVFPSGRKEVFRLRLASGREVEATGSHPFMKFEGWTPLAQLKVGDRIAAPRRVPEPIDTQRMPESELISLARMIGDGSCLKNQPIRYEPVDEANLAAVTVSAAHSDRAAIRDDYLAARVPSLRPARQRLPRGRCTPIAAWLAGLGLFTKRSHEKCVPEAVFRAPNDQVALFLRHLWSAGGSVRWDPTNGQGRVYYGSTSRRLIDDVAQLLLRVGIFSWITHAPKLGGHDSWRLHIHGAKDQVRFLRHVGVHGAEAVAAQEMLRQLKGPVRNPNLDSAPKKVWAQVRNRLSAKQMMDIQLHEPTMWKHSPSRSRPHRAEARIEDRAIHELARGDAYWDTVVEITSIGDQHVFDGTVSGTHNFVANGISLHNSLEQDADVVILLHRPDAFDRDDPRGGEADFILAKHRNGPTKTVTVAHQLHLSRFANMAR

Protein RecA = molecular target: T2, Protein RecA (Mycobacterium tuberculosis, UniProt P9WHJ3); assay: Fluorescence Cell-Free Homogeneous Dose Retest to Identify Inhibitors of RecA-Intein Splicing Activity. [Related pubchem assays (depositor defined):AID2097, AID2223, AID489010, AID492950]; type: functional
T2 sequence (P9WHJ3 whole entry): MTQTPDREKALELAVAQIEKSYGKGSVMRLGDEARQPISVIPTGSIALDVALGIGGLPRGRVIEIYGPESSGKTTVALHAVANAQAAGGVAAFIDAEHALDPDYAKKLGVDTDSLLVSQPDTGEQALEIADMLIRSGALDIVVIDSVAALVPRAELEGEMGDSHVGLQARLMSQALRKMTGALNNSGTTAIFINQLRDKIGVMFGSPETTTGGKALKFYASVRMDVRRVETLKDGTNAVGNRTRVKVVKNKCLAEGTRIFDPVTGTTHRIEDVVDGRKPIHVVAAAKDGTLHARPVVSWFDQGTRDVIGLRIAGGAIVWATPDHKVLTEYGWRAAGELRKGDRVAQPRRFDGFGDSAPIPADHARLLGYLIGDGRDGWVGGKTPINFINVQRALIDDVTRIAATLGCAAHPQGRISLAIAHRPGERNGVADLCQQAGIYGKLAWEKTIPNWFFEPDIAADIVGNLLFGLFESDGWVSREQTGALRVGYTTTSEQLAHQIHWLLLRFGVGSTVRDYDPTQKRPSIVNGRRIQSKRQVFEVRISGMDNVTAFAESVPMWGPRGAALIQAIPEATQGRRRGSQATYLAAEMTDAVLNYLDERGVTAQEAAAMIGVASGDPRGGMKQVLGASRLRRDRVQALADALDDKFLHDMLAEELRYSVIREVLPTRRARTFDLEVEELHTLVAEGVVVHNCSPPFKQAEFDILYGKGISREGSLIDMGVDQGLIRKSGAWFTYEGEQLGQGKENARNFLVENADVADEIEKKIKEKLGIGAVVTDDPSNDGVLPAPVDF

[5] = molecular target: T3, Heat shock factor protein 1 (Mus musculus, UniProt P38532); assay: enhancement of HSF1-driven luciferase signal – cell-based, NIH3T3, luminescence, dose retest, confirmation (AID 435004); type: functional;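 note: stress induced by proteasome inhibitor MG132 added 30 min after compound; luciferase reporter driven by HSF1 response element in NIH3T3 cells; actives raise luminescence as potentiators of the MG132 stress response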
T3 sequence (P38532 whole entry): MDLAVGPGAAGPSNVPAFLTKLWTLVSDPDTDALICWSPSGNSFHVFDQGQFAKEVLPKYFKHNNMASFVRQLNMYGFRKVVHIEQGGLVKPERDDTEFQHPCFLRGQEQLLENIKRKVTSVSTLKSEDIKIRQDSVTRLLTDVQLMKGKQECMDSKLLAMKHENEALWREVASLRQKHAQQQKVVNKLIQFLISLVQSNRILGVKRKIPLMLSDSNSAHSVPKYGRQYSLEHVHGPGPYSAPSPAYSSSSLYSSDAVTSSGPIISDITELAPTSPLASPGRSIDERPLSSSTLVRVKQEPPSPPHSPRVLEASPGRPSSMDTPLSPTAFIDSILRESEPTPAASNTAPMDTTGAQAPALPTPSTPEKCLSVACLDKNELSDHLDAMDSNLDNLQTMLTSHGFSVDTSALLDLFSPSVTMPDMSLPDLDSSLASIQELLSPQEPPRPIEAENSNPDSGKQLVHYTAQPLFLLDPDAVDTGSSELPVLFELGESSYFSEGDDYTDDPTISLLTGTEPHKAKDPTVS

[6] = reduction of Shn3 3'UTR-driven luciferase in osteoblasts – cell-based, Clone20 osteoblasts, firefly luciferase, cherry-picked, dose response (AID 624132); type: functional;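 note: firefly luciferase luminescence from reporter carrying the Shn3 3'UTR in osteoblasts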
[7] = non-specific 3'UTR reporter inhibition in Clone20-Shn3RL – cell-based, Renilla luciferase, cherry-picked, counter-screen for Shn3 inhibitor project, dose response (AID 624133); type: functional
[8] = molecular target: T4, RNA-binding protein pos-1 (Caenorhabditis elegans, UniProt G5EF15); assay: disruptors of C. elegans POS-1 RNA interaction – biochemical, fluorescence polarization, dose response (AID 1964);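 note: purified POS-1 fused to maltose binding protein made in E. coli; potency of compounds blocking POS-1 binding to fluorescent RNA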
T4 sequence (G5EF15 whole entry): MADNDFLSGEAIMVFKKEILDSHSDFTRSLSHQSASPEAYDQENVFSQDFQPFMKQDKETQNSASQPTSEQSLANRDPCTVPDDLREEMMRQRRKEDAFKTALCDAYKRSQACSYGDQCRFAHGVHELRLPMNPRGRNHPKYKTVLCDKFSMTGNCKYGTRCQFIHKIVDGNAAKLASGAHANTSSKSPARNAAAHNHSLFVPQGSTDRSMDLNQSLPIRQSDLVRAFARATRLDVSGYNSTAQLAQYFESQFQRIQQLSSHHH

[9] = molecular target: T5, Zinc finger protein mex-5 (Caenorhabditis elegans, UniProt Q9XUB2); assay: potency of MEX-5 RNA-binding blockers – biochemical, C. elegans, fluorescence polarization, dose response (AID 1960)
T5 sequence (Q9XUB2 whole entry): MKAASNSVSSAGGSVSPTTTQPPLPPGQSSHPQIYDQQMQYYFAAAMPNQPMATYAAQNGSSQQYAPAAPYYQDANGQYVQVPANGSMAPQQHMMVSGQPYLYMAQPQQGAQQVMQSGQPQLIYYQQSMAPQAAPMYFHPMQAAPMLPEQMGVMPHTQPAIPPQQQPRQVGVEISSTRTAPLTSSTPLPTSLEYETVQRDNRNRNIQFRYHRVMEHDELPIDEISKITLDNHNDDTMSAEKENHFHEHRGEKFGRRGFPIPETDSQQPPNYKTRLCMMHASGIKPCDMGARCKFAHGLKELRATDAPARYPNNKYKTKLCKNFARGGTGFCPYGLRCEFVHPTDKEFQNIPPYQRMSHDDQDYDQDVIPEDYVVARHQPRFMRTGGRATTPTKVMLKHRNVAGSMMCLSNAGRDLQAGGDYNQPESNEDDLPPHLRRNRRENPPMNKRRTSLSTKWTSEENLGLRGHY

[10] = molecular target: Induced myeloid leukemia cell differentiation protein Mcl-1 (Homo sapiens, UniProt Q07820); type: functional
Cytochrome P450 1A2 = molecular target: T6, Cytochrome P450 1A2 (Homo sapiens, UniProt P05177);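 note: PubChem cytochrome P450 panel assay, CYP1A2 panel member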
T6 sequence (P05177 whole entry): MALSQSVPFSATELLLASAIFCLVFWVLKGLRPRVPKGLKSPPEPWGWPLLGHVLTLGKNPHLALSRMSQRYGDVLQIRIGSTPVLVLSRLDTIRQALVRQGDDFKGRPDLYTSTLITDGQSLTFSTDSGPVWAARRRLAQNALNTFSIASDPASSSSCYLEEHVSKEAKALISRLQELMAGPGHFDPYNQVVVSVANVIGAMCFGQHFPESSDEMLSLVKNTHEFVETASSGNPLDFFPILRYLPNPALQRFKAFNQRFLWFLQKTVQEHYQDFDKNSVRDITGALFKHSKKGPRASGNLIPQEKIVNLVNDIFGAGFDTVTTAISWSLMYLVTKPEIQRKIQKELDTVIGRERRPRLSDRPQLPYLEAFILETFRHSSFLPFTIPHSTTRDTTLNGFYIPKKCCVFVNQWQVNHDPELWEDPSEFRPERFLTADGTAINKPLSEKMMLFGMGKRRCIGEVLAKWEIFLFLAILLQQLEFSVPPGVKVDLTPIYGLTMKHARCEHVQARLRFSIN

[11] = viability of PTEN-deleted HCT116 cells – cell-based, HCT116 PTEN knockout, dose response (AID 1047); type: functional;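 note: HCT116 colon tumor cells with PTEN knocked out; cells exposed to compound for 60 hours before readout; potency for loss of cell viability measured by luminescence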
[12] = viability of HCT116 lacking mutant beta-catenin – cell-based, human colon tumor, dose response (AID 1045); type: functional;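 note: HCT116 colon tumor cells with beta catenin knocked out; cells exposed to compound for 60 hours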
P388/ADR = assay: cells; type: functional; conditions: Mus musculus
SN12K1 = assay: cells; type: functional; conditions: Homo sapiens
P388 = assay: cells; type: functional; conditions: Mus musculus

Induced myeloid leukemia cell differentiation protein Mcl-1, sequence (Q07820 whole entry): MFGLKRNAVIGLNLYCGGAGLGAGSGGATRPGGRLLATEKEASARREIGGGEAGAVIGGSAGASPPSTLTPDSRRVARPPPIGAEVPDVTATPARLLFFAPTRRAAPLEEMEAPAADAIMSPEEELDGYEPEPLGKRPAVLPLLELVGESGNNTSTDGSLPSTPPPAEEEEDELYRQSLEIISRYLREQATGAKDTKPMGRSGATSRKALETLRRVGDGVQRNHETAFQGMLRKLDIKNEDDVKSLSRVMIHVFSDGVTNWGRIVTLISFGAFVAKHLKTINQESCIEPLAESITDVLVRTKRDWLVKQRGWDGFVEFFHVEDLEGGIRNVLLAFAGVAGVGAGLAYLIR

Compound	GI50 (P388/ADR)	GI50 (SN12K1)	GI50 (P388)	further results
CCc1ccc(/C=C2/SC(=S)N(CCC(=O)NCCCN3CCOCC3)C2=O)cc1				EC50 (BJ [1]): 1.32 µM (active); EC50 (BJ [2]): 14.5 µM (active); EC50 [3]: > 38 µM (not active)
O=C(CSc1nc2ccccc2nc1SCC(=O)N1CCOCC1)N1CCOCC1				AC50 [4]: 194 µM (active); EC50 (Protein RecA): > 380 µM (inactive)
CCCCNC1C(CC)C(CCC)C(C#N)(C#N)C1(C#N)C#N (stereo not drawn)				EC50 [5]: 11.1 µM (active); AC50 [4]: > 380 µM (inactive); EC50 (Protein RecA): 2.36 µM (active)
C=CCNc1nc(N2CCOCC2)c(C#N)c2c1CN(C)CC2				AC50 [6]: > 70 µM (inactive); AC50 [7]: 28.2 µM (active)
COc1cc(C2C(C#N)=C(N)OC3=C2C(=O)CCC3)c([N+](=O)[O-])cc1OC (stereo not drawn)				EC50 [8]: 15.8 µM (active); EC50 [9]: 13.8 µM (active); IC50 [10]: 3.9 µM (active); AC50 (Cytochrome P450 1A2): 31.6 µM (inconclusive)
Cc1ccc(S(=O)(=O)c2nc(-c3ccc(F)cc3)oc2SCC(=O)NCC2CCCO2)cc1 (stereo not drawn)				EC50 [11]: 83.1 µM (active); EC50 [12]: 35.3 µM (active)
Cc1cccc(N2CCN(C(=O)c3cn(C)c(=O)c4c3c3ccccc3n4C)CC2)c1C				EC50 [11]: 19.1 µM (active); EC50 [12]: 18.6 µM (active)
O=[N+]([O-])c1ccc(Nc2cccc3c4cc[nH]c(-c5ccccc5)c-4nc23)c([N+](=O)[O-])c1	14.3 µM (inactive)	10 µM (inactive)	20.1 µM (inactive)	
COc1cc(NC(=O)COc2cccc3c2OC(C)(C)C3)cc(OC)c1OC				AC50 [6]: 4.38 µM (active); AC50 [7]: 3.03 µM (active)
CCOC(=O)COc1ccccc1/C=C1\CCC(CN(C)C)C1=O (stereo not drawn)	0.436 µM (active)	1.87 µM (inactive)	0.342 µM (active)	
CCOC(=O)C(C)NC(=O)N(C)C12CC3CC(CC(C3)C1)C2 (stereo not drawn)	123 µM (inactive)	190 µM (inactive)	52.2 µM (inactive)	
CC12CCC3C(CCC4(O)C=CCCC34C=O)C1(O)CC(O)C2c1ccc(=O)oc1 (stereo not drawn)	> 500 µM (inactive)	0.0624 µM (active)	336 µM (inactive)	
CN(C)CCNc1c([N+](=O)[O-])cc2c3c(cccc13)C(=O)N(CCN(C)C)C2=O	1.87 µM (inactive)	7.83 µM (inactive)	0.925 µM (active)	
CC(C)=CCc1c(O)ccc2c1OC1c3ccc(O)c(CC=C(C)C)c3OCC21 (stereo not drawn)	7.31 µM (inactive)	4.92 µM (inactive)	5.55 µM (inactive)	
O=S1(=O)N2CN3CN(C2)CN1C3	21.2 µM (inactive)	> 100 µM (inactive)	18.5 µM (inactive)	
C=CCNC(=O)C(C)C1CCC2(C)C=CC(=O)C(C)=C2C1O (stereo not drawn)	> 100 µM (inactive)	> 100 µM (inactive)	> 100 µM (inactive)	
O=C(O)CCC(NC(=O)c1ccc(Nc2cnc3cc(C(F)(F)F)ccc3n2)cc1)C(=O)O (stereo not drawn)	> 100 µM (inactive)	> 100 µM (inactive)	> 100 µM (inactive)	
Cc1c(C2=NN=C(/N=N/c3c(O)cccc3O)/C2=C/c2ccccc2)c(=O)n(-c2ccccc2)n1C	> 100 µM (inactive)	> 100 µM (inactive)	> 100 µM (inactive)	
CC1(CO)C(O)CCC2(C)C1CCC1CC3CC12CCC3(O)CO (stereo not drawn)	0.42 µM (active)	1.16 µM (inactive)	0.394 µM (active)	
COc1ccc(/C=C/C(=O)Oc2ccc(/C=N/NC(=O)c3ccccc3)cc2)cc1OC				EC50 [11]: 27.7 µM (active); EC50 [12]: 25.8 µM (active)
CC1(C)S[C@@H]2[C@H](NC(=O)CCC[C@@H](N)C(=O)O)C(=O)N2[C@H]1C(=O)O [ADICILLIN]	> 50 µM (inactive)	> 50 µM (inactive)	> 50 µM (inactive)	
